The text below walks through data of patent publication EP4501339A1, “POSTBIOTIC COMPOSITION FOR SKIN DISORDERS AND COSMETIC USE” (Igen Biolab Group AG, priority 2023, dated 2025).

Data set [1] is described as follows: In vitro 3T3 NRU phototoxicity assay OECD 432. The data set is classed as cell-based, mouse. The following applies: mouse, reference item; for viability at 1 h, 200 µg/mL: C1 = 200 µg/mL; for viability at 1 h, 66.67 µg/mL: C2 = 66.67 µg/mL; for viability at 1 h, 22.22 µg/mL: C3 = 22.22 µg/mL; for viability at 1 h, 7.407 µg/mL: C4 = 7.407 µg/mL; for viability at 1 h, 2.47 µg/mL: C5 = 2.47 µg/mL; for viability at 1 h, 0.823 µg/mL: C6 = 0.823 µg/mL; for viability at 1 h, 0.274 µg/mL: C7 = 0.274 µg/mL; for viability at 1 h, 0.091 µg/mL: C8 = 0.091 µg/mL. The procedure:
(§1) The phototoxicity assay used 3T3 cells as test system. The aim of this study was to obtain the Photo-Irritation Factor (PIF) for the postbiotic composition of the invention. 3T3 cells were treated with the postbiotic composition of the invention at eight different concentrations for 1 hour. Thereafter, half of the samples were exposed to simulated solar irradiation, whereas the other half was kept in the dark. Cell viability was calculated after 24 hours of incubation by means of the neutral red assay. The following reagents were used for these assays. Table 3 Table 3 Reagents used in this example
(§2) Balb/c 3T3 cells were used as a test system. Once thawed, cells were grown as a monolayer in DMEM culture medium supplemented with 10% Newborn Calf Serum (NCBS) and antibiotics (100 U/mL penicillin and 100 µg/mL streptomycin). The cells were incubated under standard culture conditions (37°C ± 2°C and 5% CO2/air), changing the medium every 2-3 days and sub-cultivating before reaching 80% confluency. According to the guideline, the 3T3 cells used in this study were tested for mycoplasma and only mycoplasma-free cells were used throughout the study.
(§3) To prepare the system, after thawing, cells were propagated from stock cultures and grown in culture medium for two weeks. For each assay, when cell density reached 80% confluence, they were trypsinized and counted using trypan blue strain. The day before the exposition to the postbiotic composition of the invention, the cells were tripsinized and counted. A suspension of 100,000 cells/mL was prepared and 200 µL of the suspension were added to each well in 96-well plates (20,000 cells/well), except in the peripheral wells.
(§4) According to the OECD Guideline for testing of chemicals: In Vitro 3T3 NRU phototoxicity test, protocol No 432 (2019), the maximum concentration to be analyzed is 1 mg/mL. As the cytotoxicity assay exposed the cells to the composition for 24 hours, and the phototoxicity assay includes an exposition of 1 hour, it was decided to perform the phototoxicity test starting from 1 mg/mL. From this concentration, eight concentrations were prepared in 1/3 dilutions. This solution was prepared in Hank's with Ca2+ and Mg2+ and HEPES. (C1) 1 mg/mL; (C2) 0.33 mg/mL; (C3) 0.11 mg/mL; (C4) 0.037 mg/mL; (C5) 0.0123 mg/mL; (C6) 0.0041 mg/mL; (C7) 0.00137 mg/mL; and (C8) 0.000457 mg/mL SDS was used as a positive control, 8 concentrations were prepared 400 µg/mL; 200 µg/mL; 100 µg/mL; 50 µg/mL; 25 µg/mL; 12.5 µg/mL; 6.25 µg/mL; and 3.125 µg/mL
(§5) As the exposition time involved in the phototoxicity test was shorter, it was decided to start this assay from highest concentration allowed: 1 mg/mL. Seven more concentrations were prepared in 1/3 dilutions. 3T3 cells were seeded at 20,000 cells/well in 96-well plates. Cells were exposed to the eight concentrations of the postbiotic composition of the invention defined above for 1 hour at 37°C and 5% CO2. Two 96-well plates were prepared for the postbiotic composition of the invention, the postbiotic composition and reference control (CPZ). One plate of each condition (+IRR) was irradiated for 52 minutes at 5 J/cm^2 while the other plates (- IRR) were kept in the dark for the same amount of time. Then, culture media was removed, cells were washed with Hank's without phenol red and 100 µL of neutral red were added to each well. Cells were incubated for 3 hours at 37°C and 5% CO2 and then were washed again. Finally, the neutral red was solubilized by adding 100 µL to each well of a solution of Acetic acid/Ethanol. Plates were incubated 10 minutes at room temperature and absorbance at 540 nm was measured.
(§6) Once obtained the cytotoxic results, the phototoxicity assay for the postbiotic composition of the invention was performed using 1 mg/mL as the highest dose. […] Therefore, it was decided to use the highest concentration allowed according to OECD 432 guideline. In total, 8 concentrations were prepared as disclosed in the material and methods section above. […]

Another data set has as its system BALB/c 3T3 cells. The data set can be described thus: In vitro 3T3 NRU phototoxicity assay OECD 432. The data set is classed as cell-based, mouse. The following applies: for IC50: Mus musculus, BALB/c3T3, light or radiation study. The procedure: as §1, §2, §3, §4, §5, §6
A short description of the next data set: in vitro. The settings on record: human.
The next data set has as its system 3T3 cells. The data set can be described thus: Dose range finding (cytotoxicity assay, MTT). The data set is classed as cell-based, mouse. The following applies: 3T3, 24h. The procedure: - Prior to the phototoxicity assay, solubility of the composition was determined, it was decided to start from 20 mg/mL in culture media. Starting from this concentration, a dose range finding experiment (cytotoxicity assay) was performed. Starting from 20 mg/mL in culture media, eight concentrations were prepared in 1/10 dilutions: 20 mg/mL; 2 mg/mL; 0.2 mg/mL; 0.02 mg/mL; 0.002 mg/mL; 0.0002 mg/mL; 0.00002 mg/mL; and 0.000002 mg/mL
Starting from the limit of solubility obtained (20 mg/mL) a dose range finding experiment was set up in order to determine the IC50 value (if obtained). 3T3 cells were seeded at 10,000 cells/well in 96-well plates. Seven more concentrations were prepared following a 1/10 dilution factor. Cells were exposed to the postbiotic composition of the invention for 24h. SDS was used as positive control and viability was determined by means of MTT method.
To establish the concentrations to be tested in the phototoxicity assay, it was decided to check the postbiotic composition of the invention in a dose range finding assay using SDS as a positive control. Starting from 20 mg/mL dissolved in culture media it was decided to prepare the concentrations disclosed above in the materials and methods section. Using the Graphpad Prism 8 statistical software, we calculated the IC50 values by means of a 4-parameter logistic curve (4PL). This equation uses log(dose) values.

In brackets after ≈: the same amount, converted by molar mass.

In general, viability refers to a read-out of living cells in per cent, often relative to untreated cells. The IC50 is the concentration needed to halve the response being measured. Higher therefore signals weaker potency. For `CN(C)CCCN1c2ccccc2Sc2ccc(Cl)cc21` [CPZ, Chlorpromazine], in data set [1] (+IRR (5 J/cm^2)), the viability at 1 h, 200 µg/mL is 2.57%; the viability at 1 h, 66.67 µg/mL turned out to be 0.32%; the viability at 1 h, 22.22 µg/mL is 1.62%; the viability at 1 h, 7.407 µg/mL is 1.75%. Also, in data set [1] (+IRR (5 J/cm^2)), the viability at 1 h, 2.47 µg/mL was determined as 1.31%; the viability at 1 h, 0.823 µg/mL came to 83.4%; the viability at 1 h, 0.274 µg/mL turned out to be 104%; the viability at 1 h, 0.091 µg/mL amounted to 103%. Besides, in data set [1] (-IRR), the viability at 1 h, 200 µg/mL came to 0.41%; the viability at 1 h, 66.67 µg/mL amounted to 0.01%; the viability at 1 h, 22.22 µg/mL amounted to 97.8%; the viability at 1 h, 7.407 µg/mL was determined as 104%. In data set [1] (-IRR), the viability at 1 h, 2.47 µg/mL is 105%; the viability at 1 h, 0.823 µg/mL worked out at 105%; the viability at 1 h, 0.274 µg/mL is 104%; the viability at 1 h, 0.091 µg/mL is 102%. In addition, in the data set with BALB/c 3T3 cells (irradiated plates), the IC50 worked out at 0.974 µg/mL (≈ 3.05 µM). For the same molecule, in the data set with BALB/c 3T3 cells (non-irradiated plates), the IC50 was determined as 31.4 µg/mL (≈ 98.5 µM). In the data set on BALB/c 3T3 cells (mouse, 1 h), the “MPE (∑i = 1^n wi PEci)/(∑i = 1^n wi)” value was 0.401 and the “PIF (IC50(−Irr))/(IC50(+Irr))” value is reported as 32.303.

For `CCCCCCCCCCCCOS(=O)(=O)[O-].[Na+]` [SDS, Sodium dodecyl sulphate], the viability in the data set “in vitro” was 2%. Further, in the data set with 3T3 cells, the “positive control result in dose range finding” value is given as “within the known range”.
